Measurements published in publication PMC11134387, “Cancer-Stem-Cell Phenotype-Guided Discovery of a Microbiota-Inspired Synthetic Compound Targeting NPM1 for Leukemia” (JACS Au, 2024).

Target: T1, NPM1 C-end WT (Homo sapiens, UniProt P06748)
T1 construct: the C-end domain (residues 225- 294); 6xHis (N); made in house; host or cells: E. coli BL21(DE3)
Experiment: Isothermal titration calorimetry, NPM1 C-end WT
Format: binding
Conditions: ITC, 25 °C
Description: To confirm a direct interaction of UCM-13369 with NPM1 and to address which domain of the protein would be responsible for binding the compound, pure protein samples of the pentameric N-end domain of NPM1, along with the C-terminal DNA-binding domains of WT and mutant NPM1 C+, were used in calorimetry assays. […] This is indicative of a lower diversity in the chemical environment of amide protons consistent with the previously reported protein unfolding.[29] […] On the other hand, the pentameric construct of the NPM1 N-end, which lacks the AML-related region, yielded a much lower binding affinity (KD ca. 100 μM range, Figure 3D).
ITC experiments were performed in a Nano ITC Low Volume (TA Instruments) at 25 °C. […]
The purity of the protein samples was checked by SDS–PAGE analysis (Figure S3) and protein quantification was performed using the Bradford protein assay.5 NPM molar concentration was expressed as the pentameric form for NPM1 WT N-end and as a monomer for NPM1 C-end WT and mutant. […]
After extraction with acetonitrile and acidification, samples were desalted and concentrated with C18 tips. Mass spectra were recorded in a Hybrid Quadrupole-Orbitrap™ Mass Spectrometer (Thermo Scientific, Waltham, Massachusetts, USA)

T1 sequence (P06748 225-294): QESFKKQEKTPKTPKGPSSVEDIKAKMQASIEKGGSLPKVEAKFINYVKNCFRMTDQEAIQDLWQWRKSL

**Q.** Which Kd does the source give for `COc1ccc(C2Cc3[nH]c4ccccc4c3C(CCNCC3CC3)C2N)cc1` (stereo not shown) [4b, 4-{2-[(Cyclopropylmethyl)amino]ethyl}-2-(4-methoxyphenyl)-2,3,4,9-tetrahydro-1H-carbazol-3-amine] here?
**A.** 37 µM
